We go through 4 molecules from patent US20230085307A1, “PYRIDAZINONE COMPOUND AND HERBICIDE” (NISSAN CHEMICAL CORPORATION, priority 2019, published 2023).

Assay [1] relates to chickweed. As to the kind of experiment: Test Example 4: herbicidal effect by soil treatment (Table 19, symbol P). The format is in vivo, common chickweed (Stellaria media). Conditions: amount of applied herbicide 320 g/ha. An outline of the steps: (§1)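 Applied as a water-diluted emulsion, the compound was sprayed onto soil covering newly sown seeds. Evaluation came three weeks after application, in a greenhouse held at 25° C. to 30° C.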

Assay [2] relates to Japanese bulrush. The assay can be described thus: Test Example 1: herbicidal activity, application before weed generation under submerged conditions (Table 16, symbol B). The format is in vivo, Japanese bulrush (Schoenoplectus juncoides). As to conditions: amount of applied herbicide 320 g/ha. An outline of the steps: (§2)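 Submerged Wagner pots (alluvial soil, 4 cm water) sown with weed seeds and planted with 2.5-leaf rice seedlings; emulsifiable concentrate diluted in water applied to water surface on sowing day. Held in greenhouse at 25-30 °C; injury scored 0-5 by herbicidal rate after three weeks.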

The subject of assay [3] is Japanese bulrush. The assay can be described thus: Test Example 2: herbicidal activity, application during weed generation under submerged conditions (Table 17, symbol B). Type of assay: in vivo, Japanese bulrush (Schoenoplectus juncoides). Conditions: AAH 320 g/ha; application during weed generation, submerged conditions. The method, boiled down: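 Steps: fill Wagner pots with alluvial soil; add water to give 4 cm depth; sow the species mixed; grow under glass at 25–30° C.; at 1–2 leaves apply water-diluted emulsion formulation to the water surface at a fixed herbicide amount; score after 3 weeks.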

The subject of assay [4] is southern crabgrass. As to the kind of experiment: Test Example 4: herbicidal effect by soil treatment (Table 19, symbol F). Type of assay: in vivo, southern crabgrass (Digitaria ciliaris). Conditions: amount of applied herbicide 320 g/ha. An outline of the steps: as §1
Assay [5] relates to blackgrass. As to the kind of experiment: Test Example 5: herbicidal effect by foliage application, plastic box (Table 20, symbol J). The format is in vivo, blackgrass (Alopecurus myosuroides). Conditions: foliage application, 320 g/ha, three weeks after application. An outline of the steps:
(§3)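 Sow seeds spot-wise in sterilized diluvial soil; cover with ~1.5 cm soil. Grow 14 days in greenhouse, 25° C. to 30° C. Spray foliage with emulsion diluted to predetermined amount. Rate effect after 3 weeks.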

Assay [6] deals with Italian ryegrass. The assay can be described thus: Test Example 5: herbicidal effect by foliage application, plastic box (Table 20, symbol K). The format is in vivo, Italian ryegrass (Lolium multiflorum). As to conditions: foliage application, 320 g/ha, three weeks after application. An outline of the steps:
as §3

The next assay has as its system lambsquarters. As to the kind of experiment: Test Example 4: herbicidal effect by soil treatment (Table 19, symbol O). Type of assay: in vivo, lambsquarters (Chenopodium album). As to conditions: amount of applied herbicide 320 g/ha. An outline of the steps: as §1
The subject of assay [7] is southern crabgrass. The assay can be described thus: Test Example 5: herbicidal effect by foliage application, plastic box (Table 20, symbol F). The format is in vivo, southern crabgrass (Digitaria ciliaris). Conditions: foliage application, 320 g/ha, three weeks after application. The method, boiled down: as §3
In assay [8] the test system is chickweed. The assay can be described thus: Test Example 5: herbicidal effect by foliage application, plastic box (Table 20, symbol P). The format is in vivo, common chickweed (Stellaria media). Conditions: foliage application, 320 g/ha, three weeks after application. An outline of the steps:
as §3

Another assay concerns wild oat. The assay can be described thus: Test Example 4: herbicidal effect by soil treatment (Table 19, symbol I). Type of assay: in vivo, wild oat (Avena fatua). As to conditions: amount of applied herbicide 320 g/ha. An outline of the steps:
as §1

Another assay has as its system barnyard grass. As to the kind of experiment: Test Example 4: herbicidal effect by soil treatment (Table 19, symbol H). Type of assay: in vivo, barnyard grass (Echinochloa crus-galli). Conditions: amount of applied herbicide 320 g/ha. An outline of the steps:
as §1

Another assay relates to rice flat sedge. The assay can be described thus: Test Example 3: herbicidal effect by foliage application, Wagner pot (Table 18, symbol E). The format is in vivo, rice flat sedge (Cyperus iria). Conditions: for herbicidal effect on E: rice flat sedge: amount of applied herbicide 320 g/ha; for herbicidal effect on rice flat sedge (E): 320 g/ha. The method, boiled down:
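Plants were sown in alluvial soil held under 0.1–0.5 cm standing water and grown 14 days in a greenhouse at 25–30 °C. An emulsifiable formulation, water-diluted to the set dose, was then sprayed onto the foliage, and effects were scored three weeks later using previously defined criteria.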

Assay [9] deals with persian speedwell. The assay can be described thus: Test Example 4: herbicidal effect by soil treatment (Table 19, symbol R). The format is in vivo, Persian speedwell (Veronica persica). As to conditions: amount of applied herbicide 320 g/ha. An outline of the steps: as §1
The subject of the next assay is oval-leafed pondweed. The assay can be described thus: Test Example 1: herbicidal activity, application before weed generation under submerged conditions (Table 16, symbol C). The format is in vivo, oval-leafed pondweed (Monochoria vaginalis). As to conditions: amount of applied herbicide 320 g/ha. An outline of the steps: as §2
The subject of assay [10] is blackgrass. As to the kind of experiment: Test Example 4: herbicidal effect by soil treatment (Table 19, symbol J). The format is in vivo, blackgrass (Alopecurus myosuroides). Conditions: amount of applied herbicide 320 g/ha. An outline of the steps: as §1
The subject of assay [11] is Italian ryegrass. The assay can be described thus: Test Example 4: herbicidal effect by soil treatment (Table 19, symbol K). Conditions: amount of applied herbicide 320 g/ha. Type of assay: in vivo, Italian ryegrass (Lolium multiflorum). An outline of the steps: as §1
For assay [12], the system named is persian speedwell. As to the kind of experiment: Test Example 5: herbicidal effect by foliage application, plastic box (Table 20, symbol R). The format is in vivo, Persian speedwell (Veronica persica). Conditions: foliage application, 320 g/ha, three weeks after application. An outline of the steps:
as §3

As for `COc1ccccc1-c1sc2cc(F)ccc2c1-c1c(OS(=O)(=O)c2ccc(C)cc2)c(C)nn(C)c1=O` [3-027], the “P: chickweed, herbicidal effect grade” value was 0 (Herbicidal rate of 5% or less (almost no effect)) in the assay with chickweed [1]; 3 (Herbicidal rate of 40% or more and less than 70%) in the assay on chickweed [8]. The “Herbicidal effect, B: Japanese bulrush” value in the assay with Japanese bulrush [2] was 3 (Herbicidal rate of 40% or more and less than 70%). The “herbicidal effect rating, B: Japanese bulrush” value (“herbicidal effect rating, B” for short) in the assay with Japanese bulrush [3] was 2 (Herbicidal rate of 20% or more and less than 40%). The “F: southern crabgrass, herbicidal effect grade” value (“F: southern crabgrass” for short) was 0 (Herbicidal rate of 5% or less (almost no effect)) in the assay on southern crabgrass [4]; 3 (Herbicidal rate of 40% or more and less than 70%) with southern crabgrass [7]. Besides, the “J: blackgrass, herbicidal effect grade” value with blackgrass [5] was 4 (Herbicidal rate of 70% or more and less than 90%); in the assay on blackgrass [10] it was 3 (Herbicidal rate of 40% or more and less than 70%). Further, the “K: Italian ryegrass, herbicidal effect grade” value (from here on “K: Italian ryegrass”) in the assay with Italian ryegrass [6] is 3 (Herbicidal rate of 40% or more and less than 70%); in the assay on Italian ryegrass [11] it was 0 (Herbicidal rate of 5% or less (almost no effect)). For the same molecule, the “O: lambsquarters, herbicidal effect grade” value (“O: lambsquarters” below) in the assay on lambsquarters was 0 (Herbicidal rate of 5% or less (almost no effect)). The “I: wild oat, herbicidal effect grade” value in the assay on wild oat was 0 (Herbicidal rate of 5% or less (almost no effect)). Moreover, in the assay on barnyard grass, the “H: barnyard grass, herbicidal effect grade” value (“H: barnyard grass” below) is reported as 0 (Herbicidal rate of 5% or less (almost no effect)). Moreover, in the assay with rice flat sedge, the “herbicidal effect on E: rice flat sedge” value is given as 5 (Herbicidal rate of 90% or more (almost completely withered)). For the same molecule, the “R: persian speedwell, herbicidal effect grade” value (“R: persian speedwell” for short) in the assay with persian speedwell [9] and in the assay on persian speedwell [12] was 0 (Herbicidal rate of 5% or less (almost no effect)) in each case. Moreover, the “Herbicidal effect, C: oval-leafed pondweed” value (“Herbicidal effect, C” for short) in the assay with oval-leafed pondweed is reported as 5 (Herbicidal rate of 90% or more (almost completely withered)).
Turning to `COc1ccccc1-c1sc2cc(F)ccc2c1-c1c(OS(=O)(=O)N(C)C)c(C)nn(C)c1=O` [3-028], the “P: chickweed, herbicidal effect grade” value is listed as 0 (Herbicidal rate of 5% or less (almost no effect)) in the assay on chickweed [1] and 5 (Herbicidal rate of 90% or more (almost completely withered)) in the assay on chickweed [8]. Besides, the “Herbicidal effect, B: Japanese bulrush” value with Japanese bulrush [2] is reported as 0 (Herbicidal rate of 5% or less (almost no effect)). Also, the “herbicidal effect rating, B” value in the assay on Japanese bulrush [3] is 0 (Herbicidal rate of 5% or less (almost no effect)). Besides, the “F: southern crabgrass” value with southern crabgrass [4] was 0 (Herbicidal rate of 5% or less (almost no effect)); in the assay on southern crabgrass [7] it was 3 (Herbicidal rate of 40% or more and less than 70%). Besides, the “J: blackgrass, herbicidal effect grade” value in the assay with blackgrass [5] is 4 (Herbicidal rate of 70% or more and less than 90%); in the assay on blackgrass [10], 0 (Herbicidal rate of 5% or less (almost no effect)). The “K: Italian ryegrass” value with Italian ryegrass [6] was 4 (Herbicidal rate of 70% or more and less than 90%); in the assay with Italian ryegrass [11], 0 (Herbicidal rate of 5% or less (almost no effect)). The “O: lambsquarters” value in the assay on lambsquarters was 0 (Herbicidal rate of 5% or less (almost no effect)). Also, in the assay on wild oat, the “I: wild oat, herbicidal effect grade” value is 0 (Herbicidal rate of 5% or less (almost no effect)). In addition, the “H: barnyard grass” value in the assay with barnyard grass is reported as 0 (Herbicidal rate of 5% or less (almost no effect)). In addition, the “herbicidal effect on E: rice flat sedge” value in the assay with rice flat sedge is listed as 5 (Herbicidal rate of 90% or more (almost completely withered)). In addition, the “R: persian speedwell” value with persian speedwell [9] and with persian speedwell [12] was 0 (Herbicidal rate of 5% or less (almost no effect)) each time. Besides, the “Herbicidal effect, C” value in the assay with oval-leafed pondweed was 0 (Herbicidal rate of 5% or less (almost no effect)).
Regarding `CCCC(=O)Oc1c(C)nn(C)c(=O)c1-c1c(-c2ccc(Cl)cc2)sc2cc(Cl)ccc12` [3-034], the “P: chickweed, herbicidal effect grade” value was 3 (Herbicidal rate of 40% or more and less than 70%) in the assay with chickweed [1]; 5 (Herbicidal rate of 90% or more (almost completely withered)) in the assay on chickweed [8]. In the assay with Japanese bulrush [2], the “Herbicidal effect, B: Japanese bulrush” value is 3 (Herbicidal rate of 40% or more and less than 70%). Also, the “herbicidal effect rating, B” value in the assay on Japanese bulrush [3] is on record as 0 (Herbicidal rate of 5% or less (almost no effect)). For the same molecule, the “F: southern crabgrass” value with southern crabgrass [4] is 0 (Herbicidal rate of 5% or less (almost no effect)); in the assay with southern crabgrass [7], 3 (Herbicidal rate of 40% or more and less than 70%). The “J: blackgrass, herbicidal effect grade” value in the assay with blackgrass [5] is 4 (Herbicidal rate of 70% or more and less than 90%); with blackgrass [10], 0 (Herbicidal rate of 5% or less (almost no effect)). Moreover, the “K: Italian ryegrass” value with Italian ryegrass [6] was 4 (Herbicidal rate of 70% or more and less than 90%); in the assay with Italian ryegrass [11] it was 1 (Herbicidal rate of 5% or more and less than 20%). Besides, in the assay on lambsquarters, the “O: lambsquarters” value was 0 (Herbicidal rate of 5% or less (almost no effect)). For the same molecule, the “I: wild oat, herbicidal effect grade” value in the assay with wild oat is 0 (Herbicidal rate of 5% or less (almost no effect)). The “H: barnyard grass” value in the assay on barnyard grass is listed as 0 (Herbicidal rate of 5% or less (almost no effect)). In addition, the “herbicidal effect on rice flat sedge (E)” value in the assay on rice flat sedge was 5 (Herbicidal rate of 90% or more (almost completely withered)). Moreover, the “R: persian speedwell” value in the assay on persian speedwell [9] is 4 (Herbicidal rate of 70% or more and less than 90%); with persian speedwell [12], 5 (Herbicidal rate of 90% or more (almost completely withered)). Also, the “Herbicidal effect, C” value with oval-leafed pondweed was 3 (Herbicidal rate of 40% or more and less than 70%).
`CCOc1ccccc1-c1sc2cc(Cl)ccc2c1-c1c(O)c(C)nn(C)c1=O` [3-039]: the “P: chickweed, herbicidal effect grade” value with chickweed [1] and with chickweed [8] was 5 (Herbicidal rate of 90% or more (almost completely withered)) each time. In the assay on Japanese bulrush [2], the “Herbicidal effect, B: Japanese bulrush” value is 1 (Herbicidal rate of 5% or more and less than 20%). Further, the “herbicidal effect rating, B” value in the assay with Japanese bulrush [3] was 2 (Herbicidal rate of 20% or more and less than 40%). Further, the “F: southern crabgrass” value in the assay on southern crabgrass [4] and in the assay with southern crabgrass [7] was 5 (Herbicidal rate of 90% or more (almost completely withered)) in each case. In addition, the “J: blackgrass, herbicidal effect grade” value in the assay on blackgrass [5] is 4 (Herbicidal rate of 70% or more and less than 90%); in the assay on blackgrass [10], 0 (Herbicidal rate of 5% or less (almost no effect)). Further, the “K: Italian ryegrass” value was 4 (Herbicidal rate of 70% or more and less than 90%) in the assay with Italian ryegrass [6]; 0 (Herbicidal rate of 5% or less (almost no effect)) in the assay with Italian ryegrass [11]. Moreover, the “O: lambsquarters” value in the assay on lambsquarters is 3 (Herbicidal rate of 40% or more and less than 70%). Also, the “I: wild oat, herbicidal effect grade” value in the assay with wild oat was 0 (Herbicidal rate of 5% or less (almost no effect)). The “H: barnyard grass” value with barnyard grass was 4 (Herbicidal rate of 70% or more and less than 90%). The “herbicidal effect on rice flat sedge (E)” value in the assay with rice flat sedge is given as 5 (Herbicidal rate of 90% or more (almost completely withered)). Also, the “R: persian speedwell” value in the assay with persian speedwell [9] and with persian speedwell [12] was 5 (Herbicidal rate of 90% or more (almost completely withered)) each time. Besides, the “Herbicidal effect, C” value in the assay on oval-leafed pondweed is given as 0 (Herbicidal rate of 5% or less (almost no effect)).
